The subject of assay [1] is MNFS60 (murine AML cells). The experiment in a line: Cell viability assay in MCSF dependent MNFS60 cells (Cell Titer Glo). In kind it is cell-based. To be noted: Mus musculus, tested at about 1 μM, read-out: M-NFS-60 CP percent inhibition. On the procedure:
Cell viability was assessed by Cell Titer Glo, Promega. […] Test compounds were serially diluted (3 fold) in DMSO to 500× the final concentration. […] Final concentration of MCSF is 10 ng/ml. Cells were incubated for 72 hrs at 37° C., 5% CO2. After the incubation 100 μl Cell Titer Glo is added to each well to determine viable cells. The assay was performed according to the manufacturer's instruction (Promega Corporation, Madison, Wis. USA). Each experimental condition was performed in triplicate. Raw data was imported in Abase and EC50s calculated with XL-fit data analysis software.
Background: Cellular ATP, detected with luciferase, serves as a proxy for viable cell number.

A further assay has as its target T1, kinase domain of PDGFRβ (Homo sapiens, UniProt P09619).
T1 construct: The kinase domain of PDGFRβ was assayed in 50 mM Hepes; purchased Invitrogen P3082
Nature of the assay: Inhibition of PDGFRb kinase signaling in an in vitro biochemical assay (alphascreen). To be noted: tested at about 1 μM, read-out: PDGFRβ percent inhibition.

The target in assay [2] is T2, cytoplasmic domain of the human CSF-1R (Homo sapiens, UniProt P07333).
T2 construct: Recombinant protein corresponding to the cytoplasmic domain of the human CSF-1R; purchased Invitrogen Corporation, Carlsbad, Calif; PV3249
T2 sequence (P07333 539-972 limits assumed): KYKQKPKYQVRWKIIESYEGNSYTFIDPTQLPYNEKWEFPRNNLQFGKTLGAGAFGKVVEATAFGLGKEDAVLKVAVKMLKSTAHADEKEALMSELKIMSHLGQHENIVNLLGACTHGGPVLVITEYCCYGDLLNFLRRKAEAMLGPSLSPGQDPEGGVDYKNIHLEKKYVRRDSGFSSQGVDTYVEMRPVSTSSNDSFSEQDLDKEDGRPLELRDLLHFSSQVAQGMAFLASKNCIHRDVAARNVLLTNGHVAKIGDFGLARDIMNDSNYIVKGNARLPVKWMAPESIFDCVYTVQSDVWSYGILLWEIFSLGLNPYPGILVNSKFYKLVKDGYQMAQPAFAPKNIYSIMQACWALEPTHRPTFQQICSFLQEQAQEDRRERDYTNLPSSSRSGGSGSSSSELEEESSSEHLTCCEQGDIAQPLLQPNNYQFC
Nature of the assay: In vitro kinase assay for colony stimulating factor-1 receptor (AlphaScreen). The class given is biochemical. To be noted: tested at about 1 μM, read-out: CSF-1R percent inhibition. The procedure, abridged: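 At a low ATP level of 1 μM, phosphate transfer by the cytoplasmic-domain kinase (4 nM) was quantified with an AlphaScreen anti-phosphotyrosine bead pair.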

The target in another assay is T3, kinase domain of cKIT (Homo sapiens, UniProt P10721).
T3 construct: The kinase domain of cKIT was assayed in 50 mM Hepes; purchased Upstate 14-559
Nature of the assay: Inhibition of cKIT kinase signaling in an in vitro biochemical assay (alphascreen). To be noted: tested at about 1 μM, read-out: cKit percent inhibition. Background: Alpha assays give light when donor and acceptor beads are brought close together.

Like-named read-outs stand apart in the source and are kept apart here.

By inhibition is commonly meant how much of the control response was suppressed.

T1 sequence (P09619 600-962 limits assumed): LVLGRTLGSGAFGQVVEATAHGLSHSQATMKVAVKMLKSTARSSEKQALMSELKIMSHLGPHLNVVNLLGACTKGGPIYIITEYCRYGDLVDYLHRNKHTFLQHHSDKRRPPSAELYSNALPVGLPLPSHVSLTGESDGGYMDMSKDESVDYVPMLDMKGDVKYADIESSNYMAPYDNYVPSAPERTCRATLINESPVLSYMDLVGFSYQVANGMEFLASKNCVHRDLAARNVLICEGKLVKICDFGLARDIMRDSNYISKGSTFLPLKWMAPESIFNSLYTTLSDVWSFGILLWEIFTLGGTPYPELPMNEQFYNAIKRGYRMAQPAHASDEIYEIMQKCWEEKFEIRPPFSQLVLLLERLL
T3 sequence (P10721 589-937 limits assumed): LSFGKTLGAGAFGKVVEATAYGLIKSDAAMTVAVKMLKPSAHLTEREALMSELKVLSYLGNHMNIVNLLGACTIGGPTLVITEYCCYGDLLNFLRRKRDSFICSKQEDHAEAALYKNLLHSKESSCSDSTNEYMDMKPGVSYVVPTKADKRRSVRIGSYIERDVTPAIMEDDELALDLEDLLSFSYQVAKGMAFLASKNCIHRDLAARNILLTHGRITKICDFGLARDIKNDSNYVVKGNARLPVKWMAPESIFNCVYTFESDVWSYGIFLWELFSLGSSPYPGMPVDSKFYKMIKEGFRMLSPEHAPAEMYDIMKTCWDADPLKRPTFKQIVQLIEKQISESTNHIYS

As for `CCOC(=O)C1(CNc2nc3ccc(Oc4ccnc(C(=O)NC)c4)cc3o2)CCCCC1` [Compound 75, 1-{[6-(2-Methylcarbamoyl-pyridin-4-yloxy)-benzooxazol-2-ylamino]-methyl}-cyclohexane-carboxylic acid ethyl ester], the inhibition at 1 µM in assay [1] (MNFS60 cells) was determined as 0%; on kinase domain of PDGFRβ, 0%; in assay [2], 99%; at kinase domain of cKIT, 7%.

`O[C@@H]1CCCC[C@H]1Nc1nc2ccc(Oc3ccncc3-c3cccnc3)cc2s1` [Example 190]: the inhibition at 1 µM in assay [1] (compounds of Table 3) was 5%; on kinase domain of PDGFRβ (compounds of Table 3), 19%; in assay [2] (compounds of Table 3) it was 98%; at kinase domain of cKIT (compounds of Table 3) it was 22%.

Regarding `CNC(=O)c1cc(Oc2ccc3nc(NCc4c(F)cccc4F)oc3c2)ccn1` [Compound 87, 4-[2-(2,6-Difluoro-benzylamino)-benzooxazol-6-yloxy]-pyridine-2-carboxylic acid methylamide], the inhibition at 1 µM is 21% in assay [1] (MNFS60 cells), 99% in assay [2] and 42% on kinase domain of cKIT.

On to `CNC(=O)c1cc(Oc2ccc3nc(NCc4ccc5c(c4)OCCO5)oc3c2)ccn1` [Compound 122, 4-{2-[(2,3-Dihydro-benzo-[1,4]dioxin-6-ylmethyl)-amino]-benzooxazol-6-yloxy}-pyridine-2-carboxylic acid methylamide], for which the inhibition at 1 µM in assay [1] (MNFS60 cells) is 19%; on kinase domain of PDGFRβ, 0%; in assay [2] it was 100%; at kinase domain of cKIT, 53%.

In the case of `Nc1ncc(-c2cc(Oc3ccc4nc(N[C@@H]5CCCC[C@H]5O)sc4c3)ccn2)cc1C(F)(F)F` [Example 282, (1R,2R)-2-(6-(6'-amino-5'-(trifluoromethyl)-2,3'-bipyridin-4-yloxy)benzo[d]thiazol-2-ylamino)cyclohexanol], the inhibition at 1 µM in assay [1] (compounds of Table 3) was determined as 22%; at kinase domain of PDGFRβ (compounds of Table 3), 7%; in assay [2] (compounds of Table 3), 99%; at kinase domain of cKIT (compounds of Table 3), 23%.

For `CNC(=O)c1cc(Oc2ccc3nc(NCc4ccc(OC)cc4OC)oc3c2)ccn1` [Compound 92, 4-[2-(2,4-Dimethoxy-benzyl-amino)-benzooxazol-6-yloxy]-pyridine-2-carboxylic acid methylamide], the inhibition at 1 µM in assay [1] (MNFS60 cells) came to 17%; in assay [2], 99%; on kinase domain of cKIT, 98%.

Regarding `c1ccc2c(c1)CCC[C@@H]2Nc1nc2ccc(Oc3ccnc4ccccc34)cc2s1` [Example 249, (S)-6-(quinolin-4-yloxy)-N-(1,2,3,4-tetrahydronaphthalen-1-yl)benzo[d]thiazol-2-amine], the inhibition at 1 µM stood at 100% in assay [1] (compounds of Table 3), 0% on kinase domain of PDGFRβ (compounds of Table 3), 100% in assay [2] (compounds of Table 3) and 69% at kinase domain of cKIT (compounds of Table 3).

Take `CNC(=O)c1cc(Oc2cc(C)c3nc(NCC4CCCCC4)sc3c2)ccn1` [Example 374, 4-(2-(cyclohexylmethylamino)-4-methylbenzo[d]thiazol-6-yloxy)-N-methylpicolinamide]: the inhibition at 1 µM in assay [1] (MCSF dependent MNFS60 cells) was determined as 3%; on kinase domain of PDGFRβ, 41%; in assay [2] it was 99%; at kinase domain of cKIT, 98%.

For the compound `CC(C)(C)OC(=O)NNC(=O)c1cc(Oc2ccc3nc(NCC4CCCCC4)oc3c2)ccn1` [Compound 68, N'-{4-[2-(Cyclohexylmethyl-amino)-benzooxazol-6-yloxy]-pyridine-2-carbonyl}-hydrazinecarboxylic acid tert-butyl ester], the inhibition at 1 µM in assay [1] (MNFS60 cells) was 18%; on kinase domain of PDGFRβ, 3%; in assay [2], 99%; on kinase domain of cKIT, 6%.

Turning to `Cn1cc(-c2cc(Oc3ccc4nc(N[C@H]5c6ccccc6C[C@H]5O)sc4c3)ccn2)cn1` [Example 350, (1S,2R)-1-(6-(2-(1-methyl-1H-pyrazol-4-yl)pyridin-4-yloxy)benzo[d]thiazol-2-ylamino)-2,3-dihydro-1H-inden-2-ol], the inhibition at 1 µM turned out to be 100% in assay [1] (MCSF dependent MNFS60 cells), 91% at kinase domain of PDGFRβ, 100% in assay [2] and 100% on kinase domain of cKIT.

`FC(F)(F)Oc1ccc2c(Oc3ccc4nc(NCC5CCCCC5)sc4c3)ccnc2c1` [Example 228, N-(cyclohexylmethyl)-6-(7-(trifluoromethoxy)quinolin-4-yloxy)benzo[d]thiazol-2-amine]: the inhibition at 1 µM turned out to be 32% in assay [1] (compounds of Table 3), 26% at kinase domain of PDGFRβ (compounds of Table 3), 100% in assay [2] (compounds of Table 3) and 70% at kinase domain of cKIT (compounds of Table 3).

Take `CNC(=O)c1cc(Oc2ccc3nc(NCCc4ccccc4)oc3c2)ccn1` [Compound 61, 4-(2-Phenylethylamino-benzo-oxazol-6-yloxy)-pyridine-2-carboxylic acid methylamide]: the inhibition at 1 µM is 35% in assay [1] (MNFS60 cells), 0% at kinase domain of PDGFRβ, 94% in assay [2] and 74% at kinase domain of cKIT.

On to `CNC(=O)c1cc(Oc2ccc3nc(NCc4ccc(OC)c(OC)c4)oc3c2)ccn1` [Compound 90, 4-[2-(3,4-Dimethoxy-benzyl-amino)-benzooxazol-6-yloxy]-pyridine-2-carboxylic acid methylamide], for which the inhibition at 1 µM stood at 18% in assay [1] (MNFS60 cells), 99% in assay [2] and 22% at kinase domain of cKIT.

Consider `C[C@@H](Nc1nc2ccc(Oc3ccnc4ccccc34)cc2s1)C1CCCCC1` [Example 243, (R)-N-(1-cyclohexylethyl)-6-(quinolin-4-yloxy)benzo[d]thiazol-2-amine], for which the inhibition at 1 µM was 76% in assay [1] (compounds of Table 3), 69% at kinase domain of PDGFRβ (compounds of Table 3), 100% in assay [2] (compounds of Table 3) and 100% at kinase domain of cKIT (compounds of Table 3).

With `CNC(=O)c1cc(Oc2ccc3nc(Nc4cccc5c4OCCO5)oc3c2)ccn1` [Compound 94, 4-[2-(2,3-Dihydro-benzo-[1,4]dioxin-5-ylamino)-benzooxazol-6-yloxy]-pyridine-2-carboxylic acid methylamide], the inhibition at 1 µM in assay [1] (MNFS60 cells) came out at 28%; in assay [2], 99%; at kinase domain of cKIT, 14%.

For `CC(=O)Nc1cc(Oc2ccc3nc(NC4CCCCC4)oc3c2)ccn1` [Compound 29, N-[4-(2-Cyclohexylamino-benzooxazol-6-yloxy)-pyridin-2-yl]-acetamide], the inhibition at 1 µM in assay [1] (MNFS60 cells) is 0%; at kinase domain of PDGFRβ it was 51%; in assay [2], 99%.

For the compound `CNC(=O)c1cc(Oc2ccc3nc(NCc4ccccn4)oc3c2)ccn1` [Compound 40, 4-{2-[(Pyridin-2-ylmethyl)-amino]-benzooxazol-6-yloxy}-pyridine-2-carboxylic acid methylamide], the values for the inhibition at 1 µM (in assay [1] (MNFS60 cells); at kinase domain of PDGFRβ; in assay [2]) were 0%, 6% and 99%, respectively.

As to `CCOc1ccccc1Nc1nc2ccc(Oc3ccnc(C(=O)NC)c3)cc2o1` [Compound 12, 4-[2-(2-Ethoxy-phenylamino)-benzooxazol-6-yloxy]-pyridin-2-carboxylic acid methylamide], the figures for the inhibition at 1 µM (in assay [1] (MNFS60 cells); at kinase domain of PDGFRβ; in assay [2]) were 30%, 12% and 99%, respectively.

Turning to `CNC(=O)c1cc(Oc2ccc3nc(Nc4ccccc4)oc3c2)ccn1` [Compound 26, 4-(2-Phenylamino-benzooxazol-6-yloxy)-pyridine-2-carboxylic acid methylamide], the inhibition at 1 µM in assay [1] (MNFS60 cells) came out at 24%; at kinase domain of PDGFRβ it was 100%; in assay [2] it was 98%.

Regarding `CNC(=O)c1cc(Oc2ccc3nc(Nc4ccccc4OC)oc3c2)ccn1` [Compound 11, 4-[2-(2-Methoxy-phenylamino)-benzooxazol-6-yloxy]-pyridin-2-carboxylic acid methylamide], the inhibition at 1 µM in assay [1] (MNFS60 cells) stood at 26%; at kinase domain of PDGFRβ, 96%; in assay [2] it was 99%.
